The values that follow come from US12545672B2, “Antibiotic compounds, methods of manufacturing the same, pharmaceutical compositions containing the same and uses thereof” (Debiopharm International S.A., priority 2018, dated 2026).

Assay [1] has as its target Neisseria gonorrhoeae FabI (Neisseria gonorrhoeae, UniProt A0ACH0F547). Put plainly: Neisseria gonorrhoeae FabI inhibition assay (NADH consumption).
The subject of assay [2] is Neisseria gonorrhoeae. In words: MIC50 by CLSI agar dilution on a panel of N. gonorrhoeae clinical isolates. The assay is classed as cell-based. The settings on record: Neisseria gonorrhoeae. Here is the method:
MIC50: MICs were determined in accordance with the appropriate Clinical and Laboratory Standards Institute (CLSI) methodology by the agar dilution susceptbility testing method in GC agar base.

Setting [3] is: agar dilution, GC agar base, minimum of 15 clinical isolates, read-out: MIC50.

Molecules are shown by their SMILES. Read-outs that look alike come from different tables or passages of the source.

Neisseria gonorrhoeae FabI, sequence (A0ACH0F547 1-261): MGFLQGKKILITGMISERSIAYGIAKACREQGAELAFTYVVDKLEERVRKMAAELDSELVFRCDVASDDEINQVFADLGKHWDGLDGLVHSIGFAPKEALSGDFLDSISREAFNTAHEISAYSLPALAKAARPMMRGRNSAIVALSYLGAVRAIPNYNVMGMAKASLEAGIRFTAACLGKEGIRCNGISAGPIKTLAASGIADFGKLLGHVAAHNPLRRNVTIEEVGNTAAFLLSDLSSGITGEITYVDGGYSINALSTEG

On to `Cc1c(CN(C)C(=O)/C=C/c2cnc3c(c2)N[C@H](C)[C@@](C)(O)C(=O)N3)oc2ccccc12` (racemic) [Compound 207, (E)-3-(3-hydroxy-2,3-dimethyl-4-oxo-2,3,4,5-tetrahydro-1H-pyrido[2,3-b][1,4]diazepin-8-yl)-N-methyl-N-((3-methylbenzofuran-2-yl)methyl)acrylamide], for which the IC50 in assay [1] is < 10 nM. For `Cc1oc2ccccc2c1CN(C)C(=O)/C=C/c1cnc2c(c1)NC[C@@](C)(CO)C(=O)N2` (single isomer, unassigned) [Compound 40], the IC50 in assay [1] was < 10 nM. Besides, the MIC50 in assay [2] (setting [3]) was < 1 µg/mL. For the molecule `Cc1oc2ccccc2c1CN(C)C(=O)/C=C/c1cnc2c(c1)NC[C@](C)(CO)C(=O)N2` (single isomer, unassigned) [Compound 41], the IC50 in assay [1] is < 10 nM. In assay [2] (setting [3]), the MIC50 was < 1 µg/mL. For `Cc1c(CN(C)C(=O)/C=C/c2cnc3c(c2)N[C@H](C)[C@H](O)C(=O)N3)oc2ccccc12` (single isomer, unassigned) [Compound 150], in that order: < 10 nM and < 1 µg/mL. For `Cc1oc2ccccc2c1CN(C)C(=O)/C=C/c1cnc2c(c1)N[C@H](C)[C@H](O)C(=O)N2` (single isomer, unassigned) [Compound 151], in that order: < 10 nM and < 1 µg/mL. `Cc1c(CN(C)C(=O)/C=C/c2cnc3c(c2)N[C@@](C)(CO)C(=O)N3)oc2ccccc12` (single isomer, unassigned) [Compound 208]: the IC50 in assay [1] was < 10 nM. For the same molecule, in assay [2] (setting [3]), the MIC50 was < 1 µg/mL. As to `Cc1c(CN(C)C(=O)/C=C/c2cnc3c(c2)N[C@](C)(CO)C(=O)N3)oc2ccccc12` (single isomer, unassigned) [Compound 209], in assay [1], the 50% inhibitory concentration (IC50) was < 10 nM. In assay [2] (setting [3]), the MIC50 was < 1 µg/mL.

With `Cc1c(CN(C)C(=O)/C=C/c2cnc3c(c2)C[C@@](C)(O)C(=O)N3)oc2ccccc12` (single isomer, unassigned) [Compound 247], the IC50 in assay [1] is < 10 nM. The MIC50 in assay [2] was < 1 µg/mL. As for `Cc1c(CN(C)C(=O)/C=C/c2cnc3c(c2)C=C[C@@](C)(O)C(=O)N3)oc2ccccc12` (single isomer, unassigned) [Compound 260], the IC50 in assay [1] was < 10 nM. In addition, the MIC50 in assay [2] (setting [3]) is < 1 µg/mL.

Turning to `N#Cc1ccc(Oc2ccc(C3=C[C@@H]4CN(C(=O)/C=C/c5cnc6c(c5)NCCC(=O)N6)C[C@@H]4C3)cc2)cc1` (stereo in doubt) [Compound 198, 4-(4-((3aR,6aS)-2-((E)-3-(4-oxo-2,3,4,5-tetrahydro-1H-pyrido[2,3-b][1,4]diazepin-8-yl)acryloyl)-1,2,3,3a,4,6a-hexahydrocyclopenta[c]pyrrol-5-yl)phenoxy)benzonitrile], the IC50 in assay [1] was < 10 nM. Further, in assay [2] (setting [3]), the MIC50 is < 1 µg/mL. For `Cc1c(CN(C)C(=O)/C=C/c2cnc3c(c2)CCCC(=O)N3)oc2cccc(N)c12` [Compound 5, (E)-N-((4-amino-3-methylbenzofuran-2-yl)methyl)-N-methyl-3-(8-oxo-6,7,8,9-tetrahydro-5H-pyrido[2,3-b]azepin-3-yl)acrylamide], in that order: < 10 nM and < 1 µg/mL. In the case of `Cc1c(CN(C)C(=O)/C=C/c2cnc3c(c2)NCCC(=O)N3)oc2cccc(N)c12` [Compound 7, (E)-N-((4-amino-3-methylbenzofuran-2-yl)methyl)-N-methyl-3-(4-oxo-2,3,4,5-tetrahydro-1H-pyrido[2,3-b][1,4]diazepin-8-yl)acrylamide], the IC50 in assay [1] is < 10 nM. In addition, the MIC50 in assay [2] (setting [3]) was < 1 µg/mL.

With `Cc1c(CN(C)C(=O)/C=C/c2cnc3c(c2)NCC(=O)N3)oc2ccccc12` [Compound 10, (E)-N-methyl-N-((3-methylbenzofuran-2-yl)methyl)-3-(3-oxo-1,2,3,4-tetrahydropyrido[2,3-b]pyrazin-7-yl)acrylamide], in assay [1], the IC50 is < 10 nM. For the same molecule, the MIC50 in assay [2] (setting [3]) is < 1 µg/mL. With `Cc1c(CN(C)C(=O)/C=C/c2cnc3c(c2)NC(C)(C)C(=O)N3)oc2ccccc12` [Compound 19, (E)-3-(2,2-dimethyl-3-oxo-1,2,3,4-tetrahydropyrido[2,3-b]pyrazin-7-yl)-N-methyl-N-((3-methylbenzofuran-2-yl)methyl)acrylamide], in assay [1], the IC50 was < 10 nM. For the same molecule, the MIC50 in assay [2] (setting [3]) was < 1 µg/mL. For `Cc1c(CN(C)C(=O)/C=C/c2cnc3c(c2)NCC(C)(CO)C(=O)N3)oc2ccccc12` (stereo not shown) [Compound 31, (E)-3-(3-(hydroxymethyl)-3-methyl-4-oxo-2,3,4,5-tetrahydro-1H-pyrido[2,3-b][1,4]diazepin-8-yl)-N-methyl-N-((3-methylbenzofuran-2-yl)methyl)acrylamide], in that order: < 10 nM and < 1 µg/mL. Regarding `Cc1c(CN(C)C(=O)/C=C/c2cnc3c(c2)NC[C@@](C)(CO)C(=O)N3)oc2ccccc12` [Compound 32, (S,E)-3-(3-(hydroxymethyl)-3-methyl-4-oxo-2,3,4,5-tetrahydro-1H-pyrido[2,3-b][1,4]diazepin-8-yl)-N-methyl-N-((3-methylbenzofuran-2-yl)methyl)acrylamide], the IC50 in assay [1] is < 10 nM. For the same molecule, the MIC50 in assay [2] (setting [3]) was < 1 µg/mL. The matching figures for `Cc1c(CN(C)C(=O)/C=C/c2cnc3c(c2)NC[C@](C)(CO)C(=O)N3)oc2ccccc12` [Compound 33, (R,E)-3-(3-(hydroxymethyl)-3-methyl-4-oxo-2,3,4,5-tetrahydro-1H-pyrido[2,3-b][1,4]diazepin-8-yl)-N-methyl-N-((3-methylbenzofuran-2-yl)methyl)acrylamide]: < 10 nM and < 1 µg/mL.

With `Cc1oc2ccccc2c1CN(C)C(=O)/C=C/c1cnc2c(c1)NCC(C)(CO)C(=O)N2` (stereo not shown) [Compound 39, (E)-3-(3-(Hydroxymethyl)-3-methyl-4-oxo-2,3,4,5-tetrahydro-1H-pyrido[2,3-b][1,4]diazepin-8-yl)-N-methyl-N-((2-methylbenzofuran-3-yl)methyl)acrylamide], the IC50 in assay [1] is < 10 nM. Moreover, the MIC50 in assay [2] (setting [3]) was < 1 µg/mL. The matching figures for `O=C1CCNc2cc(/C=C/C(=O)N3C[C@H]4CC(c5ccc(Oc6ncccn6)cc5)=C[C@H]4C3)cnc2N1` [Compound 60, 8-((E)-3-Oxo-3-((3aS,6aR)-5-(4-(pyrimidin-2-yloxy)phenyl)-3,3a,4,6a-tetrahydrocyclopenta[c]pyrrol-2(1H)-yl)prop-1-en-1-yl)-1,2,3,5-tetrahydro-4H-pyrido[2,3-b][1,4]diazepin-4-one]: < 10 nM and < 1 µg/mL. For `Cc1oc2ccccc2c1CN(C)C(=O)/C=C/c1cnc2c(c1)NC1(CCOCC1)C(=O)N2` [Compound 64, (E)-N-Methyl-N-((2-methylbenzofuran-3-yl)methyl)-3-(3′-oxo-2,3,3′,4′,5,6-hexahydro-1′H-spiro[pyran-4,2′-pyrido[2,3-b]pyrazin]-7′-yl)acrylamide], the IC50 in assay [1] was < 10 nM. For the same molecule, in assay [2] (setting [3]), the MIC50 was < 1 µg/mL. The matching figures for `Cc1oc2c(N)cccc2c1CN(C)C(=O)/C=C/c1cnc2c(c1)NCCC(=O)N2` [Compound 75, (E)-N-((7-Amino-2-methylbenzofuran-3-yl)methyl)-N-methyl-3-(4-oxo-2,3,4,5-tetrahydro-1H-pyrido[2,3-b][1,4]diazepin-8-yl)acrylamide]: < 10 nM and < 1 µg/mL. Turning to `Cc1c(CN(C)C(=O)/C=C/c2cnc3c(c2)NC(C)(CO)C(=O)N3)oc2ccccc12` (stereo not shown) [Compound 84, (E)-3-(2-(Hydroxymethyl)-2-methyl-3-oxo-1,2,3,4-tetrahydropyrido[2,3-b]pyrazin-7-yl)-N-methyl-N-((3-methylbenzofuran-2-yl)methyl)acrylamide], the IC50 in assay [1] is < 10 nM. For the same molecule, the MIC50 in assay [2] (setting [3]) is < 1 µg/mL. The matching figures for `Cc1oc2c(Oc3cncs3)cccc2c1CN(C)C(=O)/C=C/c1cnc2c(c1)NCCC(=O)N2` [Compound 101, (E)-N-Methyl-N-((2-methyl-7-(thiazol-5-yloxy)benzofuran-3-yl)methyl)-3-(4-oxo-2,3,4,5-tetrahydro-1H-pyrido[2,3-b][1,4]diazepin-8-yl)acrylamide]: < 10 nM and < 1 µg/mL. As for `Cc1oc2c(N)cccc2c1CN(C)C(=O)/C=C/c1cnc2c(c1)NCC(C)(C)C(=O)N2` [Compound 109, (E)-N-((7-Amino-2-methylbenzofuran-3-yl)methyl)-3-(3,3-dimethyl-4-oxo-2,3,4,5-tetrahydro-1H-pyrido[2,3-b][1,4]diazepin-8-yl)-N-methylacrylamide], the IC50 in assay [1] was < 10 nM. Besides, the MIC50 in assay [2] (setting [3]) is < 1 µg/mL. For `N#Cc1cccc(Oc2ccc(C3=C[C@H]4CN(C(=O)/C=C/c5cnc6c(c5)NCCC(=O)N6)C[C@H]4C3)cc2)c1` [Compound 123, 3-(4-((3rS,6rR)-2-((E)-3-(4-Oxo-2,3,4,5-tetrahydro-1H-pyrido[2,3-b][1,4]diazepin-8-yl)acryloyl)-1,2,3,3r,4,6r-hexahydrocyclopenta[c]pyrrol-5-yl)phenoxy)benzonitrile], in that order: < 10 nM and < 1 µg/mL. With `Cc1c(CN(C)C(=O)/C=C/c2cnc3c(c2)NC[C@@](C)(O)C(=O)N3)oc2cccc(N)c12` [Compound 143, (R,E)-N-((4-amino-3-methylbenzofuran-2-yl)methyl)-3-(3-hydroxy-3-methyl-4-oxo-2,3,4,5-tetrahydro-1H-pyrido[2,3-b][1,4]diazepin-8-yl)-N-methylacrylamide], the IC50 in assay [1] was < 10 nM. Moreover, the MIC50 in assay [2] (setting [3]) is < 1 µg/mL. On to `Cc1c(CN(C)C(=O)/C=C/c2cnc3c(c2)N[C@H](C)[C@@](C)(O)C(=O)N3)oc2ccccc12` [Compound 207, (E)-3-(3-hydroxy-2,3-dimethyl-4-oxo-2,3,4,5-tetrahydro-1H-pyrido[2,3-b][1,4]diazepin-8-yl)-N-methyl-N-((3-methylbenzofuran-2-yl)methyl)acrylamide], for which, in assay [2] (setting [3]), the MIC50 was < 1 µg/mL.
